In US4999352A, “1-(1-aryl-2-hydroxyethyl)-imidazoles and salts thereof, medicaments containing these compounds, and the use thereof” (Hoechst Aktiengesellschaft, priority 1987, dated 1991):

These compounds were tested on tetrabenazine-induced ptosis (assay: Test for influence on tetrabenazine-induced ptosis in mice). Conditions: Mus musculus, po, 0.5 h, p.o., tetrabenazine 40 mg/kg i.p. 30 minutes after test substance, ptosis scored 30 minutes later, 50% of control ptosis, 95% confidence limit in parentheses.
Assay type: in vivo, mice (male, SPF-71, KF:NMRI)
Protocol: Test for influence on tetrabenazine-induced ptosis
Male mice (SPF-71, KF:NMRI) weighing 18-22 g were allotted at random to treatment groups of 6 animals. The test substances were suspended in 1% strength methylhydroxyethylcellulose (MH)/water and administered orally at 10 ml/kg of body weight. A control group was given the solvent (1% strength MH), and the standard group was given 10 mg/kg p.o. of nomifensine (in 1% strength MH). The tetrabenazine solution used was prepared from methanesulfonate (.congruent.76.8% of base), and an amount corresponding to 40 mg/kg of tetrabenazine base was administered intraperitoneally 30 minutes after the test substances. The ptosis was assessed according to the following scale 30 minutes after administration of tetrabenazine: […]
The ptosis scores were cumulated and the result of the groups related to the maximum score achievable (6×.varies.=100%). By means of linear regression, the ED50 (mg/kg) was determined as the dose at which the degree of ptosis is 50% of the value determined in the control group.

**Q.** With `C=CCC1(C(O)C(c2cccc(Cl)c2)n2ccnc2)CCCCC1` (centres unmarked) [Example 1, 1-(1-Allyl-1-cyclohexyl)-2-(3-chlorophenyl)-2-(1-imidazolyl)-ethanol] as the compound, how does the ED50 read?
**A.** Its ED50 is 3.9 mg/kg.

**Q.** Which ED50 does the source give for `C=CCC(C)(C)C(O)C(c1cccc(Cl)c1)n1ccnc1` (centres unmarked) [Example 2, 1-(3Chlorophenyl)-3,3-dimethyl-1-(1-imidazolyl)-5-hexen-2-ol] here?
**A.** The ED50 was 2 mg/kg.

**Q.** For `C=CCC(C)(C)C(O)C(c1ccc(-c2ccccc2)cc1)n1ccnc1` (centres unmarked) [Example 13], which ED50 is on record?
**A.** Its ED50 is 1.3 mg/kg.

**Q.** For `CCCC(C)(C)C(O)C(c1ccc(-c2ccccc2)cc1)n1ccnc1` (centres unmarked) [Example 26, 1-(4-Diphenyl)-3,3-dimethyl-1-(1-imidazolyl)-2-hexanol], which ED50 is on record?
**A.** The ED50 was 1.2 mg/kg.

**Q.** Which ED50 does the source give for `CN1Cc2c(N)cccc2C(c2ccccc2)C1` (centres unmarked) [nomifensine, reference compound] here?
**A.** The ED50 was 1.2 mg/kg.
